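Tested at 5 concentrations; 48 h exposure; 96-well plates; endpoints linearly interpolated, else capped at highest concentration. Here, GI50 denotes the concentration required for 50% inhibition of growth. At the TGI there is no net growth.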
What was measured:
Assay in all cases: NCI-60 cell line screen, 48 h
NCI-H460 lung = tested on: NCI-H460 lung
UACC-62 melanoma = tested on: UACC-62 melanoma
NCI-H23 lung = tested on: NCI-H23 lung
HCT-15 colon = tested on: HCT-15 colon
COLO 205 colon = tested on: COLO 205 colon
CCRF-CEM leukemia = tested on: CCRF-CEM leukemia
OVCAR-5 ovarian = tested on: OVCAR-5 ovarian
HCC-2998 colon = tested on: HCC-2998 colon
A498 renal = tested on: A498 renal

CC(C)CNCC(O)COc1ccc(C(C)(C)c2ccc(OCC(O)CNCC(C)C)cc2)cc1 (configuration not stated) gave a GI50 (NCI-H460 lung) of 1.97 µM, a TGI (NCI-H460 lung) of 4.11 µM and a GI50 (UACC-62 melanoma) of 1.82 µM. It also gave a TGI (UACC-62 melanoma) of 3.4 µM, a GI50 (NCI-H23 lung) of 11.7 µM and a TGI (NCI-H23 lung) of 25.5 µM. It also gave a GI50 (HCT-15 colon) of 2.2 µM, a TGI (HCT-15 colon) of 7.35 µM and a GI50 (COLO 205 colon) of 1.59 µM. For the same compound, the TGI (COLO 205 colon) was 3.24 µM, the GI50 (CCRF-CEM leukemia) was 2.38 µM and the TGI (CCRF-CEM leukemia) was 6.18 µM. For the same compound, the GI50 (OVCAR-5 ovarian) was 6.1 µM, the TGI (OVCAR-5 ovarian) was 20.2 µM and the GI50 (HCC-2998 colon) was 2.02 µM. For the same compound, the TGI (HCC-2998 colon) was 4.26 µM, the GI50 (A498 renal) was 11.3 µM and the TGI (A498 renal) was 25.1 µM.
For C1C[OH+]CC[OH+]CCNCC[OH+]CC[OH+]CCN1.[Cl-].[Pt+4], the GI50 (UACC-62 melanoma) was 91.9 µM, the TGI (UACC-62 melanoma) was > 100 µM and the GI50 (NCI-H23 lung) was > 100 µM. For the same compound, the TGI (NCI-H23 lung) was > 100 µM, the GI50 (COLO 205 colon) was > 100 µM and the TGI (COLO 205 colon) was > 100 µM. For the same compound, the GI50 (CCRF-CEM leukemia) was 30.1 µM, the TGI (CCRF-CEM leukemia) was > 100 µM and the GI50 (OVCAR-5 ovarian) was > 100 µM. The TGI (OVCAR-5 ovarian) was > 100 µM, the GI50 (HCC-2998 colon) was > 100 µM and the TGI (HCC-2998 colon) was > 100 µM. The GI50 (A498 renal) was > 100 µM and the TGI (A498 renal) was > 100 µM.
Compound COc1ccc2c(c1)/C(=C\c1cccnc1)C(=O)N2 has a GI50 (NCI-H460 lung) of 19.2 µM, a TGI (NCI-H460 lung) of 62.4 µM and a GI50 (NCI-H23 lung) of 16.6 µM. It also gave a TGI (NCI-H23 lung) of 35 µM, a GI50 (HCT-15 colon) of 14.4 µM and a TGI (HCT-15 colon) of 39.5 µM. The GI50 (COLO 205 colon) was 26.2 µM, the TGI (COLO 205 colon) was > 100 µM and the GI50 (CCRF-CEM leukemia) was 10.8 µM. For the same compound, the TGI (CCRF-CEM leukemia) was > 100 µM, the GI50 (OVCAR-5 ovarian) was 24.3 µM and the TGI (OVCAR-5 ovarian) was 78.5 µM. For the same compound, the GI50 (A498 renal) was 23.4 µM and the TGI (A498 renal) was 49.8 µM.
In the case of O=C(O)[C@@H]1[C@H](C(=O)O)[C@H](C(=O)O)C[C@@H]1C(=O)O, the TGI (NCI-H460 lung) is reported as > 100 µM, the TGI (UACC-62 melanoma) is reported as > 100 µM and the TGI (NCI-H23 lung) is reported as > 100 µM. The TGI (HCT-15 colon) was > 100 µM, the TGI (COLO 205 colon) was > 100 µM and the TGI (OVCAR-5 ovarian) was > 100 µM. For the same compound, the TGI (A498 renal) was > 100 µM.
For CCn1c(C(=O)N(C2CC2)C2CC2)cc2c3c(ncn3C)c(Nc3cc(C)n(C)n3)nc21, the GI50 (NCI-H460 lung) was > 100 µM, the TGI (NCI-H460 lung) was > 100 µM and the GI50 (UACC-62 melanoma) was > 100 µM. The TGI (UACC-62 melanoma) was > 100 µM, the GI50 (NCI-H23 lung) was > 100 µM and the TGI (NCI-H23 lung) was > 100 µM. For the same compound, the GI50 (HCT-15 colon) was > 100 µM, the TGI (HCT-15 colon) was > 100 µM and the GI50 (COLO 205 colon) was > 100 µM. The TGI (COLO 205 colon) was > 100 µM, the GI50 (CCRF-CEM leukemia) was > 100 µM and the TGI (CCRF-CEM leukemia) was > 100 µM. For the same compound, the GI50 (OVCAR-5 ovarian) was > 100 µM, the TGI (OVCAR-5 ovarian) was > 100 µM and the GI50 (HCC-2998 colon) was > 100 µM. For the same compound, the TGI (HCC-2998 colon) was > 100 µM and the TGI (A498 renal) was > 100 µM.
For COc1ccc(NC(=O)C(=O)Cc2nc3ccc([N+](=O)[O-])cc3[nH]c2=O)c(OC)c1, the TGI (NCI-H460 lung) was > 100 µM, the TGI (UACC-62 melanoma) was > 100 µM and the TGI (NCI-H23 lung) was > 100 µM. For the same compound, the TGI (HCT-15 colon) was > 100 µM, the TGI (COLO 205 colon) was > 100 µM and the TGI (CCRF-CEM leukemia) was > 100 µM. The TGI (OVCAR-5 ovarian) was > 100 µM, the TGI (HCC-2998 colon) was > 100 µM and the TGI (A498 renal) was > 100 µM.
In the case of COC(=O)C(C(=O)C(=O)Nc1ccc(C(F)(F)F)cc1[N+](=O)[O-])c1csc(-n2nc(-c3ccccc3)cc2-c2ccccc2)n1 (configuration not stated), the TGI (NCI-H460 lung) is reported as > 100 µM, the TGI (UACC-62 melanoma) is reported as > 100 µM and the TGI (NCI-H23 lung) is reported as > 100 µM. The TGI (HCT-15 colon) was > 100 µM, the TGI (COLO 205 colon) was > 100 µM and the TGI (CCRF-CEM leukemia) was > 100 µM. The TGI (OVCAR-5 ovarian) was > 100 µM, the TGI (HCC-2998 colon) was > 100 µM and the TGI (A498 renal) was > 100 µM.
O=C(c1ccc(Cl)cc1)c1ccc(OCCCCCCCCCCOc2ccc(C(=O)c3ccc(Cl)cc3)cc2)cc1 was tested, and the TGI (NCI-H460 lung) was > 100 µM, the TGI (UACC-62 melanoma) was > 100 µM and the TGI (NCI-H23 lung) was > 100 µM. For the same compound, the TGI (HCT-15 colon) was > 100 µM, the TGI (COLO 205 colon) was > 100 µM and the TGI (CCRF-CEM leukemia) was > 100 µM. For the same compound, the TGI (OVCAR-5 ovarian) was > 100 µM, the TGI (HCC-2998 colon) was > 100 µM and the TGI (A498 renal) was > 100 µM.
